Assay results published in US6020345A, “Pyridin-2-yl-methylamine derivatives, method of preparing and application as medicine” (Pierre Fabre Medicament, priority 1996, dated 2000).
Read-outs that look alike come from different tables or passages of the source.

Tests used:
[1] = target: T1, D2 dopaminergic receptors (Rattus norvegicus, UniProt P61169); test: In vitro affinity for the D2 dopaminergic receptors by displacement of (^3 H) YM-09151-2; assay type: binding
T1 construct: rat striatum is used; from tissue; host or cells: rat striatum
Experimental: 2-Measurement of the affinity of the compounds of the invention for the D2 receptors
The in vitro affinity of the compounds of the invention for the D2 dopaminergic receptors was determined by measuring the displacement of (^3 H) YM-09151-2 (NET-1004 70-87 Ci/mmol). The study of binding to the D2 receptor is carried out as described by Niznik (Naunyn-Schmiedeberg's Arch. Pharmacol. Methods, 1985, 329, 333-38). For these experiments, rat striatum is used. After thawing the brain in 50 mmol Tris-HCl buffer, pH=7.40 at 25° C., the striatum is collected and homogenized in 40 volumes of buffer maintained at 4° C. The homogenate is centrifuged at 20,000 g for 10 minutes, the centrifugation pellet is suspended in the same volume of buffer and again centrifuged. The final pellet is suspended in cold 50 mmol Tris-HCl reaction buffer, pH=7.40 at 25° C. containing 120 mmol of NaCl and 5 mmol of KCl. The final concentration of tissue in the incubation medium is 2 mg/tube. The reaction tubes contain 0.20 ml of [^3 H]YM-09151-2 (0.05 mmol final), 0.20 ml of product to be tested 6-7 concentrations and 1.60 ml of tissue. Nonspecific binding is defined using 1 mmol of (+)-Butaclamol. The reaction tubes are incubated at 23° C. for 60 minutes and then their content is rapidly filtered under vacuum on Whatman GF/B filters, the tubes are rinsed twice with 5 ml of 50 mmol Tris-HCl buffer, pH=7.40 at 25° C. The radioactivity collected on the filter is analyzed by liquid scintillation by adding 4 ml of scintillation fluid (Emulsifier Safe, Packard). All the experiments are carried out in triplicate.
(§1) The inhibition constants (Ki) of the products of the invention are estimated from displacement experiments using the nonlinear regression program RADLIG version 4 from EBDA (Equilibrium Binding Data Analysis) (Biosoft, Cambridge, UK, McPherson, 1985). […] The pKi (-logKi) values are given in the form of the mean ±SEM of at least 3 experiments.

5-HT1A receptors [2] = target: T2, 5-HT1A receptors (Rattus norvegicus, UniProt P19327); test: In vivo 5-HT1A agonist activity: lower lip retraction (LLR) in rats after oral administration; design: Sprague Dawley male rats; from tissue; host or cells: whole animal, Sprague Dawley male rats (central nervous system); species or system rat (Sprague Dawley male); settings: 1 h
T2 sequence (P19327 1-422): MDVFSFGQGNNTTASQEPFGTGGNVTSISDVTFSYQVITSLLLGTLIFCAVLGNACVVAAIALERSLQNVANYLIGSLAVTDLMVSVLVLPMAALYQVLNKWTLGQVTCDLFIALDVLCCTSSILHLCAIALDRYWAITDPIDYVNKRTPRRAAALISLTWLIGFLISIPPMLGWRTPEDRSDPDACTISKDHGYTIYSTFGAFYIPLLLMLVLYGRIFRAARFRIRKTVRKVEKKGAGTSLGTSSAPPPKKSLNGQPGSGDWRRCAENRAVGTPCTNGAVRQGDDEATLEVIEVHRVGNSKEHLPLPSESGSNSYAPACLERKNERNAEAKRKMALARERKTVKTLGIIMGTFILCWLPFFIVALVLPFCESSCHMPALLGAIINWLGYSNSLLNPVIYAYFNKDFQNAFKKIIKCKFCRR
Excerpt: 3-Evaluation of the agonist activity of the 5-HT1A receptors of the compounds of the invention in vivo
Sprague Dawley male rats (ICO: OFAD [IOPS], Iffa Credo, France) weighing 160-180 g on their arrival and 180-200 g at the beginning of the tests are used. The animals are quarantined for 4 to 8 days with free access to standard laboratory food before their use in the experiments. Animals are housed individually in plastic cages on a support, (28 cm×21 cm×18 cm) with a floor having a wire mesh covering (RC Iffa Credo), 24 hours before the tests. Water filtered on 0.22 μm is available ad libitum by means of an automatic dispenser. The quarantine area and the experimentation laboratory are air-conditioned (temperature: 22±1° C.; relative humidity: 55±5%) and illuminated from 07:00 to 19:00. All the rats are treated in accordance with laboratory animal ethics (Guide for the Care and Use of Laboratory Animals, U.S. Department of Agriculture. Public Health Service. National Institutes of Health publication No. 85-23, Revised 1985), and the protocol (No. 15) is carried out in accordance with the recommendations of the local ethics committee on animal research.
The methods used are essentially identical to those described previously (Drug. Dev. Res. 1992, 26, 21-48; Eur. J. Pharmacol. 1995, 281, 219-28).
The behavior of the animal is observed for a period of 10 minutes each, centred on t60 minutes, after administration by the oral route. Four animals are observed individually during the 10 minute period (from t55 to t65); the 4 rats are observed in turn, every 15 seconds, duration of observation 10 seconds per animal. During each of these observation periods, the presence (1) or absence (0) of lower lip retraction (LLR) in the animal is noted. […] This cycle is repeated 10 times over a period of 10 minutes; thus, the frequency of a behavior may vary from 0 to 10 for each observation period. Each day, two animals from each group receive the same dose of the same product.
The products are dissolved in distilled water or suspended in an aqueous solution of Tween 80 (2 drops/10 ml of distilled water). The products are administered in a volume of 10 ml/kg and the doses are expressed in basal weight. The order of administration of the products and of the doses is randomized.

5-HT1A receptors [3] = target: T2, 5-HT1A receptors; test: In vitro affinity for the 5-HT1A receptors by displacement of (^3 H)8-OH-DPAT; assay type: binding; design: rat cerebral cortices are used; from tissue; host or cells: rat cerebral cortex; settings: for pKi 5-HT1A: mean of at least 3 experiments, rat cerebral cortex, (^3 H)8-OH-DPAT; for 5-HT1A /D2 Selectivity: ratio of affinity constants (Ki) D2 /(Ki) 5-HT1A; for affinity for the 5-HT1A receptors (in words): in vitro
Experimental: 1-Measurement of the affinity of the compounds of the invention for the 5-HT1A receptors
The study of binding to the 5-HT1A receptor was carried out as described by Sleight and Peroutka (Naunyn-Schmiedeberg's Arch. Pharmaco. 1991, 343, 106-16). For these experiments, rat cerebral cortices are used. After thawing the brain in 50 mmol Tris-HCl buffer, pH=7.40 at 25° C., the cerebral cortex is removed and homogenized in 20 volumes of buffer maintained at 4° C. The homogenate is centrifuged at 39,000 g for 10 minutes, the centrifugation pellet is suspended in the same volume of buffer and again centrifuged. After suspending again under the same conditions, the homogenate is incubated for 10 minutes at 37° C. and then centrifuged again. The final pellet is suspended in cold 50 mmol Tris-HCl reaction buffer, pH=7.40 at 25° C. containing 10 mmol of pargyline, 4 mmol of CaCl2 and 0.10% of ascorbic acid. The final concentration of tissue in the incubation medium is 10 mg/tube.
Nonspecific binding is defined using 10 mmol of 5-HT. The reaction tubes are incubated at 23° C. for 30 minutes and then their content is rapidly filtered under vacuum on Whatman GF/B filters, the tubes are rinsed twice with 5 ml of 50 mmol Tris-HCl buffer, pH=7.4 at 25° C. The radioactivity collected on the filter is analyzed by liquid scintillation by adding 4 ml of scintillation fluid (Emulsifier Safe, Packard). All the experiments are carried out in triplicate.
as §1

[4] = mean of at least 3 experiments, rat striatum, (^3 H)YM-09151-2
[5] = read-out: LLR p.o (60 minutes) ED50, oral, observed t55 to t65 minutes
[6] = mean of at least 3 experiments, rat striatum, (^3 H)YM-09151-2, read-out: pKi D2 (converted)
[7] = po, read-out: LLR p.o (60 minutes) ED50

T1 sequence (P61169 whole entry): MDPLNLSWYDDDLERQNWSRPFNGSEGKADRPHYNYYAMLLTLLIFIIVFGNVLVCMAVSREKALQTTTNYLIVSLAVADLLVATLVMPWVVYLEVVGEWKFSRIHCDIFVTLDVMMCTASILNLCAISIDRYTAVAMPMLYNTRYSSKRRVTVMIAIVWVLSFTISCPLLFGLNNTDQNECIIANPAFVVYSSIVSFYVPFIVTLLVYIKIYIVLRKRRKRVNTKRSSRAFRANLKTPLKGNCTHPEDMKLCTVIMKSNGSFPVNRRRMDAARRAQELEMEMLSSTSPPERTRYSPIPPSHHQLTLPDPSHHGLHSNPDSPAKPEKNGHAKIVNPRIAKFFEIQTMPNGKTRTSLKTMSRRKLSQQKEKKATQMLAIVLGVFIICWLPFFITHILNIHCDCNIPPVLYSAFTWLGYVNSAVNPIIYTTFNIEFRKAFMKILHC

Row | Structure (SMILES) | pKi D2 [1, 4] | ED50 (5-HT1A receptors [2]; [5]) [mg/kg] | pKi 5-HT1A (5-HT1A receptors [3]) | 5-HT1A /D2 Selectivity (5-HT1A receptors [3]) | Ki [1, 6] [nM] | Ki (5-HT1A receptors [3]; read-out: pKi 5-HT1A (converted)) [nM] | ED50 (5-HT1A receptors [2]; [7]) [mg/kg] | affinity for the 5-HT1A receptors (in words) (5-HT1A receptors [3]) | Ki [1] [nM]
1 | CNc1cccc(CNCC2(F)CCN(C(=O)c3ccc(Cl)c(Cl)c3)CC2)n1 [I-11] | 6.40 | 0.31 | 9.67 | 1862 |  |  |  |  | 
2 | CCNc1cccc(CNCC2(F)CCN(C(=O)c3ccc(F)c(Cl)c3)CC2)n1 [I-58] |  | 0.31 | 9.73 | 1259 | 234 |  |  |  | 
3 | Cc1ccc(CNCC2(F)CCN(C(=O)c3ccc(F)c(Cl)c3)CC2)nc1N(C)C [I-61, (3-chloro-4-fluoro-phenyl)-(4-fluoro-4-{[(5-methyl-6-dimethylaminopyridin-2-yl-methyl)amino]-methyl}piperidin-1-yl)methanone] |  | 0.08 | 9.50 | 1906 | 603 |  |  |  | 
4 | Cc1ccc(CNCC2(F)CCN(C(=O)c3ccc(Cl)c(Cl)c3)CC2)nc1 [I-65] |  | 0.31 | 9.24 | > 10000 | > 10000 |  |  |  | 
5 | O=C(c1ccc(F)c(Cl)c1)N1CCC(F)(CNCc2cccc(N3CCC3)n2)CC1 [I-56] |  | 0.08 |  | 7414 | 1020 | 0.138 |  |  | 
6 | CN(C)c1cccc(CNCC2(F)CCN(C(=O)c3ccc(Cl)c(Cl)c3)CC2)n1 [I-14, (3,4-dichlorophenyl)-(4-fluoro-4-{[(6-dimethylaminopyridin-2-yl-methyl)amino]methyl}piperidin-1-yl)-methanone] | 6.48 | 0.31 | 9.61 | 1349 |  |  |  |  | 
7 | CCCN(CCC)C1CCc2cccc(O)c2C1 (stereo not shown) [8-OH-DPAT, 7-dipropylamino-5,6,7,8-tetrahydronaphthalen-1-ol, reference compound] | 6.26 |  |  |  |  |  | 5 | high affinity for the 5-HT1A receptors | 
8 | CN(C)c1cccc(CNCC2(F)CCN(C(=O)c3ccc(F)c(Cl)c3)CC2)n1 [I-13, (3-chloro-4-fluoro-phenyl)-(4-fluoro-4-{[(6-dimethylaminopyridin-2-yl-methyl)amino]methyl}-piperidin-1-yl)methanone] | 6.56 | 0.31 | 9.92 | 2291 |  |  |  |  | 
9 | CNc1nc(CNCC2(F)CCN(C(=O)c3ccc(F)c(Cl)c3)CC2)ccc1C [I-55, (3-chloro-4-fluoro-phenyl)-(4-fluoro-4-{[(5-methyl-6-methylaminopyridin-2-ylmethyl)amino]-methyl}piperidin-1-yl)methanone] |  |  | 10.12 | 16982 |  |  | 0.08 |  | 1290
10 | O=C1CC2(CCCC2)CC(=O)N1CCCCN1CCN(c2ncccn2)CC1 [Buspirone, reference compound] |  | 20 |  |  |  |  |  | high affinity for the 5-HT1A receptors | 
11 | O=C(c1ccc(F)c(Cl)c1)N1CCC(F)(CNCc2cccc(-c3ccco3)n2)CC1 [I-32, (3-chloro-4-fluorophenyl)-(4-fluoro-4-{[(6-furan-2-yl-pyridin-2-yl-methyl)amino]methyl}-piperidin-1-yl)methanone] | 5.65 | 0.31 | 9.55 | 7942 |  |  |  |  | 
12 | O=C(c1ccc(F)c(Cl)c1)N1CCC(F)(CNCc2cccc(-c3cc[nH]n3)n2)CC1 [I-62] |  | 0.31 | 9.34 | 16594 | 7590 |  |  |  | 
13 | CNc1cccc(CNCC2(F)CCN(C(=O)c3ccc(F)c(Cl)c3)CC2)n1 [I-59] |  | 0.31 | 9.69 | 5011 | 1020 |  |  |  | 
